Experimental data reported in patent publication US9988378B2, “1 H-pyrazole and 4,5-disubstituted thiazole inhibitors of SYK” (Hoffmann-La Roche Inc., priority 2012, dated 2018).

How the values were obtained:
RAMOS = test: RAMOS_V2_IC50; type: cell-based; details: Homo sapiens
[1] = target: T1, recombinant human SYK360-635 (Homo sapiens, UniProt P43405); test: SYK kinase assay, 33P ATP filtration (ENZYME_FILTRATION_IC50); type: biochemical; details: SYK aa 360-635 0.5 nM, ATP 20 μM, peptide 5 μM, 30° C. 15 min
T1 construct: truncated construct of Spleen Tyrosine Kinase aa 360-635; made in house
Experimental: Determination of IC50 of Spleen Tyrosine Kinase (SYK) Inhibition:
SYK kinase assay is a standard kinase assay adapted to a 96 well plate format. This assay is performed in 96-well format for IC50 determination with […] which represented 10 half log dilutions and a 40 μL reaction volume. The assay measures the incorporation of radiolabeled ^33P ATP into an N-terminally biotinylated peptide substrate, derived from naturally occurring phosphoacceptor consensus sequence (Biotin-11aa DY*E). Phosphorylated products were detected upon termination of reactions with EDTA and the addition of Streptavidin coated beads. Representative results are in Table II above.
Assay plates: 96-well MultiScreen 0.65 um filter plates (Millipore Cat. No.: MADVNOB10) Streptavidin coated beads: Streptavidin Sepharose™, suspension 5.0 mL, in 50 mM EDTA/PBS diluted (1:100), (Amersham, Cat. No.: 17-5113-01)
Compounds: 10 mM in 100% dimethylsulfoxide (DMSO), final conc.: compound 0.003-100 uM in 10% DMSO
Enzyme: SYK RPA purified, truncated construct of Spleen Tyrosine Kinase aa 360-635, stock solution 1 mg/mL, MW: 31.2 KDa, final conc.:0.0005 μM.
Peptide 1: biotinylated peptide is derived from a naturally occurring phosphor-acceptor consensus sequence (Biotin-EPEGDYEEVLE), special order from QCB, stock solution 20 mM, final conc.: 5.0 μM.
ATP: Adenosine-5′-triphosphate 20 mM, (ROCHE Cat. No.: 93202720), final concentration: 20 μM
Buffer: HEPES: 2-Hydroxyethyl piperazine-2-ethanesulfonic acid (Sigma, Cat. No.: H-3375) final concentration: 50 mM HEPES pH7.5
BSA: Bovine Serum Albumin Fraction V, fatty acid free (Roche Diagnostics GmbH, Cat. No. 9100221) diluted to a final concentration of 0.1%
EDTA: EDTA stock solution 500 mM, (GIBCO, Cat. No.: 15575-038) final concentration: 0.1 mM
DTT: 1,4-Dithiothreitol (Roche Diagnostics GmbH, Cat. No.: 197777), final conc.: 1 mM MgCl2×6H2O: MERCK, Cat. No.: 105833.1000, final concentration: 10 mM
Assay Dilution Buffer (ADB): 50 mM HEPES, 0.1 mM EGTA, 0.1 mM Na Vanadate, 0.1 mM β-glycerophosphate, 10 mM MgCl2, 1 mM DTT, 0.1% BSA, pH 7.5
Bead wash buffer: 10 g/L PBS (Phosphate buffered saline) with 2M NaCl+1% phosphoric acid.
In 40 μL volume, 26 μL of ADB diluted, purified recombinant human SYK360-635 [0.5 nM] was mixed with 4 μL of 10× concentrations of the test compounds, [usually 100 μM-0.003 μM] in [10%] DMSO and the mixture was incubated for 10 min at RT.
The kinase reaction was initiated by the addition of 10 μL 4× substrate cocktail containing the DYE peptide substrate [0 or 5 μM], ATP [20 μM] and ^33PγATP [2 μCi/rxn]. After incubation at 30° C. for 15 min, the reaction was terminated by the transfer of 25 μL pf the reaction sample to a 96 well 0.65 μm Millipore MADVNOB membrane/plate containing 200 μL 5 mM EDTA and 20% Streptavidine coated beads in PBS.
The unbound radionucleotides were washed under vacuum with 3×250 μL 2M NaCl; 2×250 μL 2M NaCl+1% phosphoric acid; 1×250 μL H2O. After the last wash membrane/plates were transferred to an adaptor plate, heat dried for 15 min at 60° C., and 50 μL scintillation cocktail was added to each well and 4 h later the amount of radioactivity was counted in a top counter.
The percent inhibition was calculated based on the uninhibited enzyme rate: % Inhibition=100/(1+(IC50/Inhibitor conc)^n)
The IC50 was calculated using a non-linear curve fit with XLfit software (ID Business Solution Ltd., Guilford, Surrey, UK).

human whole blood = test: IC50: human whole blood; type: cell-based

Compound | IC50 (RAMOS) | IC50 [1] | IC50 (human whole blood)
CC(C)(C)NC(=O)c1c[nH]nc1-c1nc2c(s1)CCC2 [Compound I-18, N-tert-butyl-3-(5,6-dihydro-4H-cyclopenta[d]thiazol-2-yl)-1H-pyrazole-4-carboxamide] | > 34.1 µM | 6.12 µM | > 50 µM
O=C(NC1CCOCC1)c1c[nH]nc1-c1nc(-c2ccccc2)cs1 [Compound I-21, 3-(4-phenylthiazol-2-yl)-N-(tetrahydro-2H-pyran-4-yl)-1H-pyrazole-4-carboxamide] | 19.1 µM | 0.209 µM | > 50 µM
O=C(Nc1c[nH]nc1-c1nc2ccccc2[nH]1)C1CCOCC1 [Compound I-33, Tetrahydro-pyran-4-carboxylic acid [3-(1H-benzoimidazol-2-yl)-1H-pyrazol-4-yl]-amide] | 3.08 µM | 0.105 µM | 2.5 µM
CC(C)(C)NC(=O)c1c[nH]nc1-c1nc(-c2ccccc2)cs1 [Compound I-16, N-tert-butyl-3-(4-phenylthiazol-2-yl)-1H-pyrazole-4-carboxamide] | 12.2 µM | 2.41 µM | > 50 µM
CC(C)C(=O)Nc1c[nH]nc1-c1nc2ccccc2[nH]1 [Compound I-30, N-[3-(1H-Benzoimidazol-2-yl)-1H-pyrazoll-4-yl]-isobutyramide] | 1.02 µM | 0.06 µM | 2.29 µM
CC(C)(CO)C(=O)Nc1c[nH]nc1-c1nc2ccccc2[nH]1 [Compound I-35, N-[3-(1H-Benzoimidazol-2-yl)-1H-pyrazol-4-yl]-3-hydroxy-2,2-dimethyl-propionamide] | 0.92 µM | 0.0549 µM | 1.92 µM
Cc1ccc2[nH]c(-c3ncsc3C(=O)NC(C)(C)C)nc2c1 [Compound I-29, 4-(5-Methyl-1H-benzoimidazol-2-yl)-thiazole-5-carboxylic acid tert-butylamide] | 1.52 µM | 0.0466 µM | 10.4 µM
CCOC(=O)c1c[nH]nc1-c1nc(-c2ccccc2)cs1 [Compound I-13, ethyl 3-(4-phenylthiazol-2-yl)-1H-pyrazole-4-carboxylate] | > 34.1 µM | > 10 µM | > 50 µM
CC(C)(CO)NC(=O)c1c[nH]nc1-c1nc2ccccc2s1 [Compound I-7, 3-(benzo[d]thiazol-2-yl)-N-(1-hydroxy-2-methylpropan-2-yl)-1H-pyrazole-4-carboxamide] | 0.552 µM | 0.562 µM | 20.4 µM

More lines, in order of falling IC50 (RAMOS), values ahead:

IC50 (RAMOS) | IC50 [1] | IC50 (human whole blood) | Compound
6.57 µM | 0.278 µM | 4.17 µM | CC(=O)OCC(C)(C)C(=O)Nc1c[nH]nc1-c1nc2ccccc2[nH]1 [Compound I-34, Acetic acid 2-[3-(1H-benzoimidazol-2-yl)-1H-pyrazol-4-ylcarbamoyl]-2-methyl-propyl ester]
4.07 µM | 1.69 µM | 13.1 µM | C[C@@H](CO)NC(=O)c1c[nH]nc1-c1nc2ccccc2s1 [Compound I-12, (S)-3-(benzo[d]thiazol-2-yl)-N-(1-hydroxypropan-2-yl)-1H-pyrazole-4-carboxamide]
0.615 µM | 0.0389 µM | 5.27 µM | O=C(Nc1c[nH]nc1-c1nc2ccccc2[nH]1)C1CCCC1 [Compound I-32, Cyclopentanecarboxylic acid [3-(1H-benzoimidazol-2-yl)-1H-pyrazol-4-yl]-amide]
0.35 µM | 0.0214 µM | 2.6 µM | CC(C)(C)C(=O)Nc1c[nH]nc1-c1nc2ccccc2[nH]1 [Compound I-31, N-[3-(1H-Benzoimidazol-2-yl)-1H-pyrazol-4-yl]-2,2-dimethyl-propionamide]
0.146 µM | 0.067 µM | 46.7 µM | CC(C)(C)NC(=O)c1c[nH]nc1-c1nc2ccccc2s1 [Compound I-8, 3-(benzo[d]thiazol-2-yl)-N-tert-butyl-1H-pyrazole-4-carboxamide]
